Here are results for four compounds from patent publication US12622913B2, “Folate salts for medical use” (APROFOL AG, priority 2018, dated 2026).

Some results are limits rather than exact numbers.

Series [1] is described as follows: Solubility determination of selected folate salts in solvents. The settings on record: mass-% (m/m), 20° C.; for Solubility in DMSO: solvent DMSO; for Solubility in EtOH: solvent EtOH; for Solubility in MeOH: solvent MeOH; for Solubility in Glycerine: solvent glycerine; for Solubility in i-PrOH: solvent i-PrOH; for Solubility in n-PrOH: solvent n-PrOH. It is filed as physicochemical. How it is done:
Solubility determination of selected folate salts was in general performed as follows:
A quantity of the salt corresponding to the expected solubility (between 1-100 mg) was provided and mixed with increments of the respective solvent until a solution was formed.

The conditions of series [2]: cited from earlier work.
For series [3] the following is noted: glycerine; previous data confirmed by the test; cited from earlier work.

As for “5-Formyl-(6S)-tetrahydrofolic acid di acetylcholine salt [FTHF di acetylcholine]”, in series [1], the “Solubility in DMSO” value is given as 0.25%, the “Solubility in EtOH” value was determined as 55.80%, the “Solubility in MeOH” value is reported as 55.80% and the “Solubility in Glycerine” value is recorded as 24.10%. Besides, in series [1], the “Solubility in i-PrOH” value turned out to be 0.50% and the “Solubility in n-PrOH” value stood at 55.90%.

Take “5-Methyl-(6S)-tetrahydrofolic acid di acetylcholine salt [MTHF di acetylcholine]”: in series [1], the “Solubility in DMSO” value is listed as 47.62%, the “Solubility in EtOH” value came to 50.00%, the “Solubility in MeOH” value is listed as >>50% and the “Solubility in Glycerine” value was determined as 24.10%. For the same compound, in series [1], the “Solubility in i-PrOH” value is listed as 50.00% and the “Solubility in n-PrOH” value is given as 50.00%.

As for “5-methyl-tetrahydrofolic acid glucosamine salt [5-MTHF-glucosamine]”, in series [2] (dilute acid or dilute alkali), the “Solubility in dilute acid or dilute alkali” value is “soluble”. Further, in series [2] (organic solvents), the “Solubility in organic solvents” value is “insoluble”. Also, the Solubility in water result in series [2] (water at 25° C.) is reported as “very soluble”.

Consider `CN1c2c([nH]c(N)nc2=O)NC[C@@H]1CNc1ccc(C(=O)N[C@@H](CCC(=O)[O-])C(=O)[O-])cc1.[Ca+2]` [calcium salt of 5-methyl-(6S)-tetrahydrofolic acid], for which the “Solubility of calcium salt, previous data” value in series [3] was “approximately 1%”.
